Measurements: patent US8921397B2, “Benzofurane-piperidine compounds” (Hoffmann-La Roche Inc., priority 2011, dated 2014)

What was measured:
human D3 receptor = human D3 receptor (Homo sapiens (Human), UniProt P35462); experiment: Radioligand binding ([3H]-spiperone) to human D3 receptor, HEK293 EBNA membranes; conditions: HEK293 EBNA cells expressing human D3 receptor
How it was run: (§1)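 Membranes from transiently transfected HEK293 EBNA cells (~7.5 μg protein/well) were incubated 1 h at RT with [3H]-spiperone (~0.7 nM for D2, 0.5 nM for D3) and ten compound concentrations (10 μM–0.1 nM) in Tris/NaCl/MgCl2/CaCl2 buffer pH 7.4. Filtration and scintillation counting, nonspecific with 10 μM spiperone; Ki via Cheng-Prusoff.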

human D2 receptor = human D2 receptor (Homo sapiens (Human), UniProt P14416); experiment: Radioligand binding ([3H]-spiperone) to human D2 receptor, HEK293 EBNA membranes; conditions: HEK293 EBNA cells expressing human D2 receptor
Chain of human D2 receptor (P14416 whole entry): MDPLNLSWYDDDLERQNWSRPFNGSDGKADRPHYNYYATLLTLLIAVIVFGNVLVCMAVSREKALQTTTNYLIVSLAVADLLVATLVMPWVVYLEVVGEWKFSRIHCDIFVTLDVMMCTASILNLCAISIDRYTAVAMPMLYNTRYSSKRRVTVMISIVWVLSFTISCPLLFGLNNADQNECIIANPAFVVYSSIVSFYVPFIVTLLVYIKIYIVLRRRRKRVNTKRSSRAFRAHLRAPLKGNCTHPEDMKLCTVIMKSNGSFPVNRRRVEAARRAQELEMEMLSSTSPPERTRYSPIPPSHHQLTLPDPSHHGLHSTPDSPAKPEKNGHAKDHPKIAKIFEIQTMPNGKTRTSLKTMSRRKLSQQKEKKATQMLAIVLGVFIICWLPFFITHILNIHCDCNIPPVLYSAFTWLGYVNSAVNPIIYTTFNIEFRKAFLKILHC
How it was run: as §1

human 5-HT2A receptor = human 5-HT2A receptor (Homo sapiens (Human), UniProt P28223); experiment: Radioligand binding ([3H]-ketanserin) to human 5-HT2A receptor, HEK293 EBNA membranes; conditions: HEK293 EBNA cells expressing human 5-HT2A receptor
Chain of human 5-HT2A receptor (P28223 whole entry): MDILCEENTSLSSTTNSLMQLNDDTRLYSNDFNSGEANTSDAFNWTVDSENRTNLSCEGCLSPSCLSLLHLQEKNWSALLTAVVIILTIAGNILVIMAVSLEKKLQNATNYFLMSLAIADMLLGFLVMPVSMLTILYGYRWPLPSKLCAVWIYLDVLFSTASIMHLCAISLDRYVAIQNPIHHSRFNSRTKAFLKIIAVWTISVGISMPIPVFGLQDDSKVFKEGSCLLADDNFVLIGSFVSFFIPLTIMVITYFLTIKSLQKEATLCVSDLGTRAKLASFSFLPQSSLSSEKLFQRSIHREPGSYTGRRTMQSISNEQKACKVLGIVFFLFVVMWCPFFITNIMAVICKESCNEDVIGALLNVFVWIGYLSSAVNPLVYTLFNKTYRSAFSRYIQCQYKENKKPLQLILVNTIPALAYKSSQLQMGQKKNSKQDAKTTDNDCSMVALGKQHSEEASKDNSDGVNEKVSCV
How it was run: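 Membranes from HEK293 EBNA cells transiently expressing the human receptor were incubated 1 h at RT with ~0.7 nM (D2) or 0.5 nM (D3) [3H]-spiperone, or 1.1 nM [3H]-ketanserin (5-HT2A), plus ten compound concentrations (10 μM–0.1 nM). Nonspecific binding was set with 10 μM spiperone; Ki was derived from IC50 via Cheng-Prusoff.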

Chain of human D3 receptor (P35462 whole entry): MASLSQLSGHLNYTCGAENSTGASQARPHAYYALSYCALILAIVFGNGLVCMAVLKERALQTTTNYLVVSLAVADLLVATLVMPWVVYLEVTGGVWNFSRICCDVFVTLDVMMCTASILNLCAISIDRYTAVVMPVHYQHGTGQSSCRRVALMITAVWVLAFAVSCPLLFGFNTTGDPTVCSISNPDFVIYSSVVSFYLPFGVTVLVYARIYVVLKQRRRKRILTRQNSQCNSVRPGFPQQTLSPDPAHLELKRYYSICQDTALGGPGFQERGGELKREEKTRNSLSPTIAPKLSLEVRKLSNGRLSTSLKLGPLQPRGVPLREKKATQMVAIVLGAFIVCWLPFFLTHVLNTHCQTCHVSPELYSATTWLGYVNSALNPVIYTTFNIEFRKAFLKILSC

Row | Compound | Ki (human D3 receptor) [nM] | Ki (human D2 receptor) [nM] | Ki (human 5-HT2A receptor) [nM] | melting point [°C]
1 | O=C(N[C@H]1CC[C@H](CCN2CCC(c3coc4ccccc34)CC2)CC1)c1ccc2c(c1)OCO2 [Example 58, Benzo[1,3]dioxole-5-carboxylic acid trans-{4-[2-(4-benzofuran-3-yl-piperidin-1-yl)-ethyl]-cyclohexyl}-amide] | 2.79 | 28.6 | 8.78 | 198
2 | O=C(N[C@H]1CC[C@H](CCN2CCC(c3coc4ccccc34)CC2)CC1)C(O)C(F)(F)F (mixture of isomers) [Example 32, trans-N-{4-[2-(4-Benzofuran-3-yl-piperidin-1-yl)-ethyl]-cyclohexyl}-(RS)-3,3,3-trifluoro-2-hydroxy-propionamide] | 4.02 | 46.4 | 6.08 | 206
3 | CCC(C)C(=O)N[C@H]1CC[C@H](CCN2CCC(c3coc4ccccc34)CC2)CC1 (mixture of isomers) [Example 31, trans-N-{4-[2-(4-Benzofuran-3-yl-piperidin-1-yl)-ethyl]-cyclohexyl}-(RS)-2-methyl-butyramide] | 4.83 | 46 | 6.56 | 172
4 | O=C(N[C@H]1CC[C@H](CCN2CCC(c3coc4ccccc34)CC2)CC1)c1ccc(-c2cccnc2)cc1 [Example 64, trans-N-{4-[2-(4-Benzofuran-3-yl-piperidin-1-yl)-ethyl]-cyclohexyl}-4-pyridin-3-yl-benzamide] | 4.55 | 16.7 | 12.8 | 224
5 | O=C(N[C@H]1CC[C@H](CCN2CCC(c3coc4ccccc34)CC2)CC1)c1cnc(N2CCOCC2)cn1 [Example 67, 5-Morpholin-4-yl-pyrazine-2-carboxylic acid trans-{4-[2-(4-benzofuran-3-yl-piperidin-1-yl)-ethyl]-cyclohexyl}-amide] | 7.72 | 106 | 8.2 | 202
6 | COCC(=O)N[C@H]1CC[C@H](CCN2CCC(c3coc4ccccc34)CC2)CC1 [Example 6, trans-N-{4-[2-(4-Benzofuran-3-yl-piperidin-1-yl)-ethyl]-cyclohexyl}-2-methoxy-acetamide] | 3.52 | 80.1 | 3.36 | 115
7 | CCCC(=O)N[C@H]1CC[C@H](CCN2CCC(c3coc4ccccc34)CC2)CC1 [Example 33, trans-N-{4-[2-(4-Benzofuran-3-yl-piperidin-1-yl)-ethyl]-cyclohexyl}-butyramide] | 1.71 | 45.3 | 5.53 | 155
8 | CC[C@@H](O)CC(=O)N[C@H]1CC[C@H](CCN2CCC(c3coc4ccccc34)CC2)CC1 [Example 46, (R)-3-Hydroxy-pentanoic acid trans-{4-[2-(4-benzofuran-3-yl-piperidin-1-yl)-ethyl]-cyclohexyl}-amide] | 2.49 | 55.4 | 8.7 | 142
9 | CS(=O)(=O)c1ccc(C(=O)N[C@H]2CC[C@H](CCN3CCC(c4coc5ccccc45)CC3)CC2)s1 [Example 75, 5-Methanesulfonyl-thiophene-2-carboxylic acid trans-{4-[2-(4-benzofuran-3-yl-piperidin-1-yl)-ethyl]-cyclohexyl}-amide] | 3.89 | 60.8 | 7.85 | 214
10 | O=C(N[C@H]1CC[C@H](CCN2CCC(c3coc4ccccc34)CC2)CC1)c1ccc2ncccc2c1 [Example 73, Quinoline-6-carboxylic acid trans-{4-[2-(4-benzofuran-3-yl-piperidin-1-yl)-ethyl]-cyclohexyl}-amide] | 2.42 | 103 | 11 | 192
11 | O=C(N[C@H]1CC[C@H](CCN2CCC(c3coc4ccccc34)CC2)CC1)c1ccc(-n2cccn2)cc1 [Example 59, trans-N-[4-{2-(4-Benzofuran-3-yl-piperidin-1-yl)-ethyl]-cyclohexyl}-4-pyrazol-1-yl-benzamide] | 5.73 | 46.9 | 22.2 | 205
12 | O=C(N[C@H]1CC[C@H](CCN2CCC(c3coc4ccccc34)CC2)CC1)c1ccc(C(F)(F)F)cc1 [Example 50, trans-N-{4-[2-(4-Benzofuran-3-yl-piperidin-1-yl)-ethyl]-cyclohexyl}-4-trifluoromethyl-benzamide] | 2.21 | 152 | 4.75 | 218
13 | CC(C)(C)C1CCC(C(=O)N[C@H]2CC[C@H](CCN3CCC(c4coc5ccccc45)CC3)CC2)CC1 (stereo partly drawn) [Example 77, 4-tert-Butyl-cyclohexanecarboxylic acid trans-{4-[2-(4-benzofuran-3-yl-piperidin-1-yl)-ethyl]-cyclohexyl}-amide] | 9.48 | 345 | 6.03 | 199
14 | O=C(CC1CCCO1)N[C@H]1CC[C@H](CCN2CCC(c3coc4ccccc34)CC2)CC1 (stereo partly drawn) [Example 29, trans-N-{4-[2-(4-Benzofuran-3-yl-piperidin-1-yl)-ethyl]-cyclohexyl}-2-(tetrahydro-furan-2-yl)-acetamide] | 2.75 | 52.9 | 5.43 | 149
15 | CN1CCN(c2ccc(C(=O)N[C@H]3CC[C@H](CCN4CCC(c5coc6ccccc56)CC4)CC3)cc2)CC1 [Example 62, trans-N-{4-[2-(4-Benzofuran-3-yl-piperidin-1-yl)-ethyl]-cyclohexyl}-4-(4-methyl-piperazin-1-yl)-benzamide] | 6.03 | 50.1 | 8.83 | 242
16 | O=C(N[C@H]1CC[C@H](CCN2CCC(c3coc4ccccc34)CC2)CC1)c1ccc(Cl)cc1 [Example 49, trans-N-{4-[2-(4-Benzofuran-3-yl-piperidin-1-yl)-ethyl]-cyclohexyl}-4-chloro-benzamide] | 3.22 | 25.8 | 9.01 | 203
17 | CC(=O)N[C@H]1CC[C@H](CCN2CCC(c3coc4ccccc34)CC2)CC1 [Example 1, trans-N-{4-[2-(4-Benzofuran-3-yl-piperidin-1-yl)-ethyl]-cyclohexyl}-acetamide] | 1.08 | 50.4 | 5.08 | 162
18 | O=C(C[C@@H](O)C(F)(F)F)N[C@H]1CC[C@H](CCN2CCC(c3coc4ccccc34)CC2)CC1 [Example 35, trans-N-{4-[2-(4-Benzofuran-3-yl-piperidin-1-yl)-ethyl]-cyclohexyl}-(R)-4,4,4-trifluoro-3-hydroxy-butyramide] | 2.29 | 50.4 | 9.69 | 166
19 | CN(C)C(=O)CCC(=O)N[C@H]1CC[C@H](CCN2CCC(c3coc4ccccc34)CC2)CC1 [Example 42, trans-N-{4-[2-(4-Benzofuran-3-yl-piperidin-1-yl)-ethyl]-cyclohexyl}-N′,N′-dimethyl-succinamide] | 2.43 | 92.3 | 7.8 | 167
20 | O=C(N[C@H]1CC[C@H](CCN2CCC(c3coc4ccccc34)CC2)CC1)C1CCCOC1 (stereo partly drawn) [Example 26, Tetrahydro-pyran-3-carboxylic acid trans-{4-[2-(4-benzofuran-3-yl-piperidin-1-yl)-ethyl]-cyclohexyl}-amide] | 5.88 | 37.1 | 4.7 | 188
21 | O=C(N[C@H]1CC[C@H](CCN2CCC(c3coc4ccccc34)CC2)CC1)C1CCCO1 (mixture of isomers) [Example 18, (RS)-Tetrahydro-furan-2-carboxylic acid trans-{4-[2-(4-benzofuran-3-yl-piperidin-1-yl)-ethyl]-cyclohexyl}-amide] | 9.2 | 81.5 | 2.88 | 132
22 | O=C(N[C@H]1CC[C@H](CCN2CCC(c3coc4ccccc34)CC2)CC1)C1CCOCC1 [Example 3, Tetrahydro-pyran-4-carboxylic acid trans-{4-[2-(4-benzofuran-3-yl-piperidin-1-yl)-ethyl]-cyclohexyl}-amide] | 4.53 | 37.3 | 2.44 | 175
23 | O=C(N[C@H]1CC[C@H](CCN2CCC(c3coc4ccccc34)CC2)CC1)c1ccc(C2CC2)cc1 [Example 84, trans-N-{4-[2-(4-Benzofuran-3-yl-piperidin-1-yl)-ethyl]-cyclohexyl}-4-cyclopropyl-benzamide] | 14.1 | 355 | 2.15 | 199
24 | O=C(CCO)N[C@H]1CC[C@H](CCN2CCC(c3coc4ccccc34)CC2)CC1 [Example 21, trans-N-{4-[2-(4-Benzofuran-3-yl-piperidin-1-yl)-ethyl]-cyclohexyl}-3-hydroxy-propionamide] | 1.27 | 62.9 | 8.26 | 148
25 | O=C(N[C@H]1CC[C@H](CCN2CCC(c3coc4ccccc34)CC2)CC1)c1ccc(-n2cccc2)cc1 [Example 68, trans-N-{4-[2-(4-Benzofuran-3-yl-piperidin-1-yl)-ethyl]-cyclohexyl}-4-pyrrol-1-yl-benzamide] | 4.58 | 34.3 | 10.2 | 212
